From PubChem BioAssay AID330 (DTP/NCI, 2004)
Inconclusive results and toxic doses are left out. Rule for the calls: active = survival T/C of 150% or more; inactive = T/C below 125% in these data.

Tested on: P388 leukemia ip, CD2F1 mice, survival T/C
Assay: NCI In Vivo Anticancer Drug Screen. Data for tumor model P388 Leukemia (intraperitoneal) in CD2F1 (CDF1) mice
Conditions: endpoint: median survival time, higher = longer survival
Method in brief: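 Mice carrying the transplanted tumor received test compound or vehicle. Survival was recorded in each group, and the value is the treated-group measurement divided by that of the vehicle-treated control group.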

[1] = dose: 60.0 mg/kg/injection, schedule: Q01DX005 (ip), vehicle: Klucel (hydroxypropylcellulose) (HPC)
[2] = dose: 120.0 mg/kg/injection, schedule: Q01DX005 (ip), vehicle: Klucel (hydroxypropylcellulose) (HPC)
[3] = dose: 240.0 mg/kg/injection, schedule: Q01DX005 (ip), vehicle: Klucel (hydroxypropylcellulose) (HPC)
[4] = dose: 100.0 mg/kg/injection, schedule: Q04DX002 (ip), vehicle: saline with Tween-80
[5] = dose: 200.0 mg/kg/injection, schedule: Q04DX002 (ip), vehicle: saline with Tween-80
[6] = dose: 50.0 mg/kg/injection, schedule: Q01DX005 (ip), vehicle: Klucel (hydroxypropylcellulose) (HPC)
[7] = dose: 100.0 mg/kg/injection, schedule: Q01DX005 (ip), vehicle: Klucel (hydroxypropylcellulose) (HPC)
[8] = dose: 200.0 mg/kg/injection, schedule: Q01DX005 (ip), vehicle: Klucel (hydroxypropylcellulose) (HPC)
[9] = dose: 25.0 mg/kg/injection, schedule: Q01DX009 (ip), vehicle: saline with Tween-80
[10] = dose: 100.0 mg/kg/injection, schedule: Q01DX009 (ip), vehicle: saline with Tween-80
[11] = dose: 50.0 mg/kg/injection, schedule: Q01DX005 (ip), vehicle: saline with Tween-80
[12] = dose: 100.0 mg/kg/injection, schedule: Q01DX005 (ip), vehicle: saline with Tween-80
[13] = dose: 200.0 mg/kg/injection, schedule: Q01DX005 (ip), vehicle: saline with Tween-80
[14] = dose: 50.0 mg/kg/injection, schedule: Q01DX009 (ip), vehicle: Klucel (hydroxypropylcellulose) (HPC)
[15] = dose: 100.0 mg/kg/injection, schedule: Q01DX009 (ip), vehicle: Klucel (hydroxypropylcellulose) (HPC)
[16] = dose: 200.0 mg/kg/injection, schedule: Q01DX009 (ip), vehicle: saline with Tween-80

Measured: T/C

C#CC[N+]12CN3CN(CN(C3)C1)C2
inactive: dose: 12.5 mg/kg/injection, schedule: Q01DX009 (ip), vehicle: saline 98 % of control | dose: 25.0 mg/kg/injection, schedule: Q01DX009 (ip), vehicle: saline 99 % of control | dose: 50.0 mg/kg/injection, schedule: Q01DX009 (ip), vehicle: saline 99 % of control | dose: 100.0 mg/kg/injection, schedule: Q01DX009 (ip), vehicle: saline 116 % of control

CS(=O)(=O)C(=Cc1ccccc1Cl)S(C)(=O)=O
inactive: dose: 50.0 mg/kg/injection, schedule: Q04DX003 (ip), vehicle: Klucel (hydroxypropylcellulose) (HPC) 102 % of control | dose: 100.0 mg/kg/injection, schedule: Q04DX003 (ip), vehicle: Klucel (hydroxypropylcellulose) (HPC) 107 % of control | dose: 200.0 mg/kg/injection, schedule: Q04DX003 (ip), vehicle: Klucel (hydroxypropylcellulose) (HPC) 108 % of control

CN1NC(c2ccccc2)NN(C)C1=S
inactive: [1] 101 % of control | [2] 98 % of control | [3] 106 % of control

O=C1OCCC1(S)C(O)c1ccccc1 (stereo not given)
inactive: dose: 21.25 mg/kg/injection, schedule: Q01DX005 (ip), vehicle: acetone 103 % of control | dose: 42.5 mg/kg/injection, schedule: Q01DX005 (ip), vehicle: acetone 100 % of control | dose: 85.0 mg/kg/injection, schedule: Q01DX005 (ip), vehicle: acetone 103 % of control

COc1ccc(C(C)c2cc3c(cc2OC)OCO3)cc1OC (stereo not given)
inactive: dose: 50.0 mg/kg/injection, schedule: Q01DX005 (ip), vehicle: distilled water + Tween-80 99 % of control | dose: 100.0 mg/kg/injection, schedule: Q01DX005 (ip), vehicle: distilled water + Tween-80 98 % of control | dose: 200.0 mg/kg/injection, schedule: Q01DX005 (ip), vehicle: distilled water + Tween-80 100 % of control

COc1ccc(C2(c3ccc(OC)cc3)N=C(n3nc(C)cc3C)NC2=O)cc1
inactive: dose: 50.0 mg/kg/injection, schedule: Q04DX002 (ip), vehicle: saline with Tween-80 94 % of control | [4] 98 % of control | [5] 94 % of control

COc1ccc2c(c1OC)/C(=C/c1ccccc1)OC2C1c2c(cc3c(c2OC)OCO3)CCN1C (stereo not given)
inactive: [6] 104 % of control | [7] 105 % of control | [8] 96 % of control

N#CC1CCCCCc2c1[nH]c1ccccc21 (stereo not given)
inactive: [9] 97 % of control | dose: 50.0 mg/kg/injection, schedule: Q01DX009 (ip), vehicle: saline with Tween-80 103 % of control | [10] 103 % of control

CC1CC(C)/C(=N/NC(N)=S)C(C(O)CC2CC(=O)NC(=O)C2)C1 (stereo not given)
inactive: [11] 109 % of control | [12] 105 % of control | [13] 104 % of control

BrCCc1ccccc1Br
inactive: dose: 50.0 mg/kg/injection, schedule: Q01DX005 (ip), vehicle: distilled water + alcohol 105 % of control | dose: 100.0 mg/kg/injection, schedule: Q01DX005 (ip), vehicle: distilled water + alcohol 97 % of control | dose: 200.0 mg/kg/injection, schedule: Q01DX005 (ip), vehicle: distilled water + alcohol 97 % of control

CC(=O)c1nn(-c2ccccc2)c(=Nc2ccccc2)cc1C
inactive: [11] 100 % of control | [12] 101 % of control | [13] 98 % of control

CN1Cc2c(c3c(n2C)CCCC3=O)C(O)C1 (stereo not given)
inactive: dose: 50.0 mg/kg/injection, schedule: Q04DX002 (ip), vehicle: saline 106 % of control | dose: 100.0 mg/kg/injection, schedule: Q04DX002 (ip), vehicle: saline 100 % of control | dose: 200.0 mg/kg/injection, schedule: Q04DX002 (ip), vehicle: saline 102 % of control

CC1(C)CC[C@H](C2=CC(=O)c3c(O)ccc(O)c3C2=O)O1
inactive: dose: 1.25 mg/kg/injection, schedule: Q01DX009 (ip), vehicle: Klucel (hydroxypropylcellulose) (HPC) 117 % of control | dose: 2.5 mg/kg/injection, schedule: Q01DX009 (ip), vehicle: Klucel (hydroxypropylcellulose) (HPC) 115 % of control | dose: 5.0 mg/kg/injection, schedule: Q01DX009 (ip), vehicle: Klucel (hydroxypropylcellulose) (HPC) 119 % of control | dose: 10.0 mg/kg/injection, schedule: Q01DX009 (ip), vehicle: Klucel (hydroxypropylcellulose) (HPC) 118 % of control

Cc1c2c(cc3c1[nH]c1ccccc13)C(c1ccc(Cl)cc1)=NCC2
inactive: dose: 12.5 mg/kg/injection, schedule: Q01DX009 (ip), vehicle: Klucel (hydroxypropylcellulose) (HPC) 99 % of control | dose: 25.0 mg/kg/injection, schedule: Q01DX009 (ip), vehicle: Klucel (hydroxypropylcellulose) (HPC) 101 % of control | [14] 96 % of control | [15] 96 % of control

CCOC(=O)C(c1ccccc1)C(CC=C(C)C)(C(C)=O)C(=O)OC (stereo not given)
inactive: [4] 103 % of control | [5] 103 % of control | dose: 400.0 mg/kg/injection, schedule: Q04DX002 (ip), vehicle: saline with Tween-80 105 % of control

Cc1ccc(C)c2c(C#Cc3ccccc3)c3ccccc3c(C#Cc3ccccc3)c12
inactive: [6] 96 % of control | [7] 90 % of control | [8] 90 % of control

O=[N+]([O-])c1ccc(Nc2cn[nH]n2)cc1
inactive: [1] 100 % of control | [2] 102 % of control | [3] 99 % of control

COc1ccc(Cc2nncc3ccccc23)cc1OC
inactive: dose: 6.25 mg/kg/injection, schedule: Q01DX009 (ip), vehicle: saline with Tween-80 107 % of control | dose: 12.5 mg/kg/injection, schedule: Q01DX009 (ip), vehicle: saline with Tween-80 107 % of control | [9] 105 % of control | [10] 95 % of control | [16] 104 % of control

COc1cc2c(cc1OC)[C@H](C(=O)O)C(c1ccc3c(c1)OCO3)N(C)C2=O (stereo not given in full)
inactive: [6] 95 % of control | [7] 103 % of control | [8] 88 % of control

O=C(NC(=O)c1ccccc1F)Nc1ccc(C(F)(F)F)cc1
inactive: [14] 102 % of control | [15] 101 % of control | dose: 200.0 mg/kg/injection, schedule: Q01DX009 (ip), vehicle: Klucel (hydroxypropylcellulose) (HPC) 99 % of control

COC(=O)Nc1nc2ccc(Br)cc2[nH]1
inactive: dose: 200.0 mg/kg/injection, schedule: Q04DX003 (oral), vehicle: saline with Tween-80 115 % of control | dose: 400.0 mg/kg/injection, schedule: Q04DX003 (oral), vehicle: saline with Tween-80 107 % of control | dose: 800.0 mg/kg/injection, schedule: Q04DX003 (oral), vehicle: saline with Tween-80 104 % of control | dose: 1600.0 mg/kg/injection, schedule: Q04DX003 (oral), vehicle: saline with Tween-80 120 % of control

CC(C)(Oc1ccc(Cl)cc1)C(=O)NC1CC(C)(C)N(O)C(C)(C)C1
inactive: dose: 60.0 mg/kg/injection, schedule: Q01DX005 (ip), vehicle: saline with Tween-80 104 % of control | dose: 120.0 mg/kg/injection, schedule: Q01DX005 (ip), vehicle: saline with Tween-80 96 % of control | dose: 240.0 mg/kg/injection, schedule: Q01DX005 (ip), vehicle: saline with Tween-80 91 % of control

C=CCOC(N)=O
inactive: [10] 100 % of control | [16] 101 % of control | dose: 400.0 mg/kg/injection, schedule: Q01DX009 (ip), vehicle: saline with Tween-80 101 % of control
